We go through three compounds from US20090209525A1, “ENABLING METHODS TO IDENTIFY ALLOSTERIC MODULATORS OF RECEPTOR ACTIVITY” (priority 2006, published 2009).

The structures appear in SMILES notation. Substitutions are numbered along the chain they refer to. “And” between values parts separate entries of the source, which are not always exact repeats. Identical values can stand only once. Like-named read-outs stand apart in the source and are kept apart here.

In one assay the target is T1, rat M1 W101A receptor (Rattus norvegicus, UniProt P08482, W101A).
T1 construct: expressed in transfected cells
T1 sequence (P08482 1-460 W101A): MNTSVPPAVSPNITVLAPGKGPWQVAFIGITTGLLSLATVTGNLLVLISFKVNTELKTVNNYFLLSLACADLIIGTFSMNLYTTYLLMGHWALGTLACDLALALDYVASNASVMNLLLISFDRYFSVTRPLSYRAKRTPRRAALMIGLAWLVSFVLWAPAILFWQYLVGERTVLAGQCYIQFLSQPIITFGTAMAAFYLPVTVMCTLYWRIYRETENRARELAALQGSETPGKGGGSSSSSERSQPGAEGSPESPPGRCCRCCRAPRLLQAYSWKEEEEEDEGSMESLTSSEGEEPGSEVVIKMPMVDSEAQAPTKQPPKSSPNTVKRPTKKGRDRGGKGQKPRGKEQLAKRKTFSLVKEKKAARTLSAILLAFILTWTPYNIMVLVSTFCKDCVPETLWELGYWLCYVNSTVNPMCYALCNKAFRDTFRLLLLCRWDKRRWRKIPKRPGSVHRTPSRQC
Put plainly: R-SAT functional assay, W101A mutant. Type of assay: cell-based. The following applies: for increase in potency relative to wild-type: R-SAT; for Shift: EC50 W101A divided by EC50 wild-type; for Eff (%): maximum response, normalized; for EC50: read-out: pEC50 (converted). As for the experimental part:
Cells are co-transfected for 18 h with DMEM containing 0.08 micrograms/ml of an expression vector for the expression of the mutant receptor and 0.3 micrograms/ml pSI-Bgal (Promega, Madison Wis.), and 0.5% v/v Polyfect (Qiagen, Valencia Calif.), as recommended by the manufacturer. On day three, the medium is replaced with DMEM containing 1% PSG, 0.5% calf serum, 2% cyto-sf3 (Kemp Biotechnologies, Frederick, Md.), and varying concentrations of the compounds to be tested. Cells are grown in a humidified atmosphere with 5% ambient CO2 for 5 days. The media is removed from the plates, and beta-galactosidase activity is measured by the addition of o-nitrophenyl -d-galactopyranoside in phosphate-buffered saline with 5% Nonidet P-40. […] The following equation is fitted to the data using GraphPad Prism software (San Diego, Calif.):
NIH-3T3 cells were grown in 96-well tissue culture plates to 70 to 80% confluence in Dulbecco's modified essential media (DMEM) supplemented with 100 units/ml penicillin, 100 micrograms/ml streptomycin, 0.3 mg/ml L-glutamine (1% PSG, GIBCO) and 10% calf serum (Sigma-Aldrich). Cells were transfected for 18 h with DMEM containing 0.08 micrograms/ml receptor DNA and 0.3 micrograms/ml pSI-Bgal (Promega, Madison Wis.), 0.5% v/v Polyfect (Qiagen, Valencia Calif.). Medium was replaced with DMEM containing 1% PSG, 0.5% calf serum, 2% cyto-sf3 (Kemp Biotechnologies, Frederick, Md.), and varying concentrations of ligand. […] Cells were grown in a humidified atmosphere with 5% ambient CO2 for 5 days. Medium was removed from the plates, and beta-galactosidase activity was measured by the addition of o-nitrophenyl -d-galactopyranoside in phosphate-buffered saline with 5% Nonidet P-40.
Receptor Selection and Amplification (R-SAT™) Assays: R-SAT™ functional assays were carried out as follows. NIH-3T3 cells were grown in 96-well tissue culture plates to 70 to 80% confluence in Dulbecco's modified essential media (DMEM) supplemented with 100 units/ml penicillin, 100 micrograms/ml streptomycin, 0.3 mg/ml L-glutamine (1% PSG, GIBCO) and 10% calf serum (Sigma-Aldrich). Cells were transfected for 18 h with DMEM containing 0.08 micrograms/ml receptor DNA and 0.3 micrograms/ml pSI-Bgal (Promega, Madison Wis.), 0.5% v/v Polyfect (Qiagen, Valencia Calif.). The transfected cells were frozen away. Cells were thawed and added to 96 well plates with DMEM containing 1% PSG, 0.5% calf serum, 2% cyto-sf3 (Kemp Biotechnologies, Frederick, Md.), and varying concentrations of ligand.
In an effort to further characterize monoamine modulators, we used a panel of mutant muscarininc M1 receptors to analyze the activity and potency of orthosteric modulators and various allosteric modulators at those receptors.

In another assay the target is T2, rat M1 Y106A receptor (Rattus norvegicus, UniProt P08482, Y106A).
T2 construct: expressed in transfected cells
T2 sequence (P08482 1-460 Y106A): T1 sequence (P08482 1-460 W101A) with A101W, Y106A
The assay is described as follows: ^3H-NMS radioligand binding, Y106A. The settings on record: for Shift: Ki Y106A divided by Ki wild-type. As for the experimental part: Briefly, cell homogenates are prepared from cells transiently or stably expressing wild type or mutant receptors. For transiently transfected cells, HEK cells are transfected with receptor of interest and cells harvested 48 hours post transfection. Cells expressing the receptor, stably or transiently, are harvested using phosphate buffered saline containing 5 mM EDTA, cells centrifuged at low speed and pellet re-suspended in binding buffer. Cell suspension is polytroned and centrifuged at 15,000×g. The pellet is resuspended in binding buffer and centrifugation repeated two more times. The washed cell homogenates are used for the competition binding assays. Competition binding assays are carried out in the presence of fixed amount of cell homogenate, fixed concentration of radioactively labeled orthosteric or allosteric ligand and varying concentrations of the cal under study using appropriate buffer. Incubations are carried out at room temperature for 2 hours. Incubations are terminated by filtration onto GF/B filters using Packard cell harvester followed by 3 washes with ice-cold buffer. Radioactivity retained on the filters is quantitated using Packard Top Count using Microscint 20 scintillation fluid. […] The membranes prepared above are incubated with a labeled ligand in 25 mM sodium phosphate, 5 mM magnesium chloride, 0.01% BSA two hours at room temperature. The binding reaction is stopped by rapid filtration onto GF/B filters. […] The pKd values (pKd=−log Kd) of the labeled ligand are calculated.
Radioligand binding assays were carried out in 25 mM sodium phosphate, 5 mM magnesium chloride, 0.01% BSA. Incubations were for two hours at room temperature, and reactions were stopped by rapid filtration onto GF/B filters.

The mark [1] stands for this setting: Table 4, M1 W101A, maximum response relative to xanomeline.
[2] abbreviates: Table 10, M1 W101A, maximum response relative to AC-42.

`CCCCC1CCN(CCCC(=O)c2ccccc2C)CC1` [AC-42, 4-n-butyl-1-[4-(2-methylphenyl)-4-oxo-1-butyl] piperidine hydrogen chloride]: on rat M1 W101A receptor (W101A), the “increase in potency relative to wild-type” value was determined as 50 fold. The Shift at rat M1 W101A receptor (Table 3) came out at 0.02; on rat M1 Y106A receptor, 1. The “Eff (%)” value at rat M1 W101A receptor (Table 3, W101A) is given as 95 ± 10%. The EC50 on rat M1 W101A receptor (Table 3, W101A) was 3.16 nM; on rat M1 W101A receptor (Table 4, M1 W101A), 7.94 nM; at rat M1 W101A receptor (Table 10, M1 W101A), 7.94 nM. Besides, the figures for the “% Eff” value on rat M1 W101A receptor (setting [1]) and on rat M1 W101A receptor (setting [2]) were 97% and 111%, respectively. Besides, on rat M1 Y106A receptor, the IC50 is 5010 nM.
`CCCCC1CCN(CCCN2C(=O)COc3cc(F)ccc32)CC1` [AC-260584, 4-[3-(4-Butyl-piperidin-1-yl)-propyl]-7-fluoro-4H-benzo [1,4]oxazin-3-one]: the “increase in potency relative to wild-type” value at rat M1 W101A receptor (W101A) is 33 fold and 30 fold. Further, the Shift on rat M1 W101A receptor (Table 3) turned out to be 0.03; on rat M1 Y106A receptor, 3. Besides, at rat M1 W101A receptor (Table 3, W101A), the “Eff (%)” value was found to be 100 ± 8%. The EC50 is 0.398 nM at rat M1 W101A receptor (Table 3, W101A); 0.2 nM on rat M1 W101A receptor (Table 4, M1 W101A); 3.16 nM on rat M1 W101A receptor (Table 10, M1 W101A). For the same compound, the “% Eff” value worked out at 98% on rat M1 W101A receptor (setting [1]) and 140% on rat M1 W101A receptor (setting [2]). Further, the IC50 at rat M1 Y106A receptor was 3160 nM.
`Clc1ccc2c(c1)N=C(N1CCNCC1)c1ccccc1N2` [NDMC, 8-chloro-11-(1-piperazinyl)-5H-dibenzo [b,e] [1,4] diazepine]: the Shift stood at 5 at rat M1 W101A receptor (Table 3) and 0.3 on rat M1 Y106A receptor. Moreover, at rat M1 W101A receptor (Table 3, W101A), the “Eff (%)” value is reported as 88 ± 12%. The EC50 on rat M1 W101A receptor (Table 3, W101A) was 200 nM; at rat M1 W101A receptor (Table 4, M1 W101A), 39.8 nM; on rat M1 W101A receptor (Table 10, M1 W101A), 100 nM. In addition, the “% Eff” value was found to be 72% at rat M1 W101A receptor (setting [1]) and 93% on rat M1 W101A receptor (setting [2]). Moreover, the half-inhibitory concentration (IC50) on rat M1 Y106A receptor is 50.1 nM.
